For test [1], the target named is FAD-linked sulfhydryl oxidase ALR (Homo sapiens, UniProt P55789). Nature of the test: inhibitors of human ALR sulfhydryl oxidase, dose response, biochemical, H2O2 detection, luminescence, cherry-pick (AID 493248).
Test [2] addresses T1, Rac GTPase-activating protein 1 (Homo sapiens, UniProt Q9H0H5).
T1 sequence (Q9H0H5 whole entry): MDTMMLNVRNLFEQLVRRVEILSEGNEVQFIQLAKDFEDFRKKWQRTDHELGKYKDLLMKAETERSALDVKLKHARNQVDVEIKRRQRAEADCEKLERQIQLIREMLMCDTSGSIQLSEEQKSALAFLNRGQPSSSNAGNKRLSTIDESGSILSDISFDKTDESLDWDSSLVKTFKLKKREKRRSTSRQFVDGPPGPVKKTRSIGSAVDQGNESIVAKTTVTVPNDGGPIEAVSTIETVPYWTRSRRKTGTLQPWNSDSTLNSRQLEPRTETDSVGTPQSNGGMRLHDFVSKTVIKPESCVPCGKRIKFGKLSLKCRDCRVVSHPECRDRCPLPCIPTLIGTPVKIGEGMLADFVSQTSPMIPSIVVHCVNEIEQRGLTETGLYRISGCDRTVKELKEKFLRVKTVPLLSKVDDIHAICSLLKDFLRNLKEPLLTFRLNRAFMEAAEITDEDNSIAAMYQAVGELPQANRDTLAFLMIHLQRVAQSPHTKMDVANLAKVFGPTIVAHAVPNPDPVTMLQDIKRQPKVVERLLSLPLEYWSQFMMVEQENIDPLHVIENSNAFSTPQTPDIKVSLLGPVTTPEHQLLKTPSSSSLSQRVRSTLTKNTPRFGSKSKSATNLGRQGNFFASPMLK
Description: MgcRacGAP GTPase-activating activity inhibitors, confirmation, biochemical, ADP Hunter fluorescence, primary and confirmatory (AID 624330). It is filed as functional.

The target of test [3] is T2, Heat shock factor protein 1 (Mus musculus, UniProt P38532).
T2 sequence (P38532 whole entry): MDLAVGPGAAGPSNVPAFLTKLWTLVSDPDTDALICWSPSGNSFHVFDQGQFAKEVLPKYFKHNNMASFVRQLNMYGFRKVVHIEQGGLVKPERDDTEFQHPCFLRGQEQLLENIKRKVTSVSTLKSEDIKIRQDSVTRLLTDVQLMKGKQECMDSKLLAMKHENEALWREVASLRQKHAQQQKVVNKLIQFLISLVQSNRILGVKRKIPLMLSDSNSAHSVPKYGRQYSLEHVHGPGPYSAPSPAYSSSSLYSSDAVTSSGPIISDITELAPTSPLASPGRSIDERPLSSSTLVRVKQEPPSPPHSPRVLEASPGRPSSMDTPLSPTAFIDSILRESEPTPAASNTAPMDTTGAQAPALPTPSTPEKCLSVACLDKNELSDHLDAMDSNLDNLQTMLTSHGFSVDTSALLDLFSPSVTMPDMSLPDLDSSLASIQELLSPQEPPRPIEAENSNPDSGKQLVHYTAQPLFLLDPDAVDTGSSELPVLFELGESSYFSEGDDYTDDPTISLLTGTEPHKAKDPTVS
Nature of the test: inhibition of MG132-induced HSE-luciferase signal, confirmation, cell-based, NIH3T3, luminescence, dose retest (AID 2382).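 Note: NIH3T3 fibroblasts with HSF1-driven luciferase reporter stressed by proteasome inhibitor MG132; luminescence from HSF1-driven luciferase expression after 8 hours of MG132 stress.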 It counts as functional.

A further test has as its target T3, Protein skinhead-1 (Caenorhabditis elegans, UniProt P34707).
T3 sequence (P34707 whole entry): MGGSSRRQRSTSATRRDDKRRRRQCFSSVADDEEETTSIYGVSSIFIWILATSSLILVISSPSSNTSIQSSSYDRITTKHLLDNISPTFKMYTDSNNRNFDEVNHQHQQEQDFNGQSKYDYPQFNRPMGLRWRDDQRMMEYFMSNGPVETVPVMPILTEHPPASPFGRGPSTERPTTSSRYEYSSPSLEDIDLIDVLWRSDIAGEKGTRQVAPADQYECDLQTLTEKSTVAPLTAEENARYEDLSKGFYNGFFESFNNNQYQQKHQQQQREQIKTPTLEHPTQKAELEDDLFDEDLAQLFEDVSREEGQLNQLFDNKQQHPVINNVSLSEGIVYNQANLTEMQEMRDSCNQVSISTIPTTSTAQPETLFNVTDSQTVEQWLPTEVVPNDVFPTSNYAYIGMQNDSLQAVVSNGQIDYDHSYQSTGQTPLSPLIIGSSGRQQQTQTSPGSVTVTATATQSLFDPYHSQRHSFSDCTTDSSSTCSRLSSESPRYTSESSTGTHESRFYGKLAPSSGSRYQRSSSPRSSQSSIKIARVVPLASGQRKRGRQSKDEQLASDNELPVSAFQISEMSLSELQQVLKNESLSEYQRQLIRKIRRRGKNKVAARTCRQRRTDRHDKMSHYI
It is filed as functional.

In the next test the test system is P388/ADR. Description: cells. It is filed as functional. The following applies: Mus musculus.
The subject of the next test is SN12K1. Description: cells. It is filed as functional. The note with it: Homo sapiens.
A further test deals with P388. Nature of the test: cells. It is filed as functional. The note with it: Mus musculus.
The subject of test [4] is Streptococcus sp. 'group A'. Description: growth inhibition of control SK(-) GAS strain, dose response, counter-screen for streptokinase expression inhibitor project, luminescence, kanamycin, BacTiterGlo, confirmation (AID 1900). It is filed as functional, organism-based. In general terms: Counterscreens check selectivity or assay interference.
The next test has as its target T4, Streptokinase A (Streptococcus pyogenes serotype M1, UniProt P10520).
T4 sequence (P10520 whole entry): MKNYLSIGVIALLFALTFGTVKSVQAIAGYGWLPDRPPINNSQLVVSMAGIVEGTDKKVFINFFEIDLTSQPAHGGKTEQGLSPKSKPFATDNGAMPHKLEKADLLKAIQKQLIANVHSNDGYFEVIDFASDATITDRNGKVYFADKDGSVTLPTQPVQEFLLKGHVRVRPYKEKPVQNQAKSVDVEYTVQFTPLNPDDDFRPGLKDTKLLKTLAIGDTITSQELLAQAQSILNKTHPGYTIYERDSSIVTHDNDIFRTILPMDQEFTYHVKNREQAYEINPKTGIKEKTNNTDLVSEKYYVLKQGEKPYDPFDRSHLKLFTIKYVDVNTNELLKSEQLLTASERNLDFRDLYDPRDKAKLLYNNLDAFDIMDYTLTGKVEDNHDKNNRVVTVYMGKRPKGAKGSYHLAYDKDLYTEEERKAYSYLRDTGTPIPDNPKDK
Description: S. pyogenes streptokinase expression inhibitors, potency, dose response, plasminogen activation absorbance, OD405 (AID 1914).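 Note: secreted streptokinase activity via plasminogen activation per viability signal from cell pellet.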 It counts as functional, Streptococcus pyogenes M1 GAS.

The nature of test [5]: inhibitors of intracellular T. cruzi replication, confirmation, NIH3T3 host cells, beta-gal luminescence (AID 2044).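 Note: intracellular parasites grown in NIH/3T3 mouse fibroblasts as host cells; luminescent beta-galactosidase reporter signal from transgenic T. cruzi replicating inside host cells; inhibitors lower the luminescence signal.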 It counts as functional, cell-based.
Test [6] is described as follows: cytotoxicity toward NIH3T3 fibroblasts, dose response, counter-screen, cell-based, ATP luminescence, mouse fibroblasts (AID 2010).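 Note: cells exposed to compound for about 90 hours before reading.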 It is filed as functional.
The test system of a further test is Streptococcus. Nature of the test: Group A Streptococcus viability loss, dose response, counter-screen for streptokinase expression inhibitor project, luminescence, BacTiterGlo (AID 1915).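 Note: potency for reduction of bacterial viability or growth.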 It counts as functional, organism-based.

Calls of active or inactive are those of the source.

Experimental findings from ChEMBL document CHEMBL1201862, “PubChem BioAssay data set” (2004) are described below.

Chain of FAD-linked sulfhydryl oxidase ALR (P55789 whole entry): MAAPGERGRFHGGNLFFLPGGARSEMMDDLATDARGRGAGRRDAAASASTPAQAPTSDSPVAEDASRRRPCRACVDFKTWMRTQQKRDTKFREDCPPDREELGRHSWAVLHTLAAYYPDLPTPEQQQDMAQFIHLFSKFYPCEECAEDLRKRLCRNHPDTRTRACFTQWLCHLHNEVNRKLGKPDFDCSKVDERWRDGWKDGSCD

`CCN(CC)c1ccc(NC(=O)CN2CCN(c3ccccn3)CC2)cc1`: the AC50 in [1] is 0.384 µM (active). For the same compound, the concentration for half-maximal inhibition (IC50) in test [2] was 131 µM (active).
As for `O=[N+]([O-])c1ccc(N2CCCC2)c2ccncc12`, the EC50 in test [3] is 31.2 µM (active). For the same compound, on Protein skinhead-1, the IC50 is > 100 µM (inactive).
With `O=C(c1cc(COc2ccc(F)cc2Cl)on1)N1CCCCCC1`, the IC50 on Protein skinhead-1 was > 100 µM (inactive).
As to `CCc1ccc(CNc2ccc(N3CCN(C(C)=O)CC3)cc2)cc1`, the AC50 in test [1] is 0.445 µM (active). Moreover, in [2], the concentration for half-maximal inhibition (IC50) was 9.44 µM (active).
On to `COc1cccc(-c2cccc(NC(=O)C3CCN(CC4CCOC4)CC3)c2)c1` (stereo not drawn), for which the IC50 on Protein skinhead-1 was > 100 µM (inactive).
On the same count and under the same terms, to `CCCC(C)C(=O)NCc1ccccc1OC` (stereo not drawn) belongs > 100 µM (inactive); to `O=S1(=O)C=C(Oc2ccc3ccccc3c2)c2ccccc21`, > 100 µM (inactive).
For the compound `Cc1ccc2c(c1)c(C)c(C)n2CC(O)CN1CCOCC1` (stereo not drawn), the IC50 at Protein skinhead-1 was > 100 µM (inactive).
Still for that read-out and setting: to `CCOC(=O)CSc1nc2ccccc2c(=O)n1CCN1CCOCC1` belongs > 100 µM (inactive); to `Cc1cc(O)c(C(C)C)cc1NC(=O)Nc1ccc([N+](=O)[O-])cc1`, 68.4 µM (inactive).
`Cc1cccc(C(=O)N(Cc2cccs2)C2CCS(=O)(=O)C2)c1` (stereo not drawn): on Protein skinhead-1, the IC50 is > 100 µM (inactive).
Same read-out and setting: the value for `Nc1ccc2c(Cl)cc(Cl)cc2c1` was 22.7 µM (active).
Regarding `CN(C)CCNC(=O)c1cc(Cl)cc2cc3ccccc3nc12`, the GI50 with P388/ADR was 0.0622 µM (active); in the test with SN12K1 it was 0.378 µM (active); in the test with P388, 0.128 µM (active).
The like results for `CCOC(=O)/C=C/c1c[nH]c(C(=O)OCC)c1` were, in that order, > 100 µM (inactive), > 100 µM (inactive) and > 100 µM (inactive).
The like results for `C=C1C[C@@H](O)C[C@@]2(C)C[C@@H]3OC(=O)C(=C)[C@@H]3C[C@H]12` were, in that order, 2.2 µM (inactive), 12.3 µM (inactive) and 2.46 µM (inactive).
The like results for `COC(=O)C1C(O)C(C)C(O)C(C)(O)/C=C\C=C(C)C(=O)Nc2c(C)c(OC(C)=O)c3c(c2O)C(=O)C(C)=C2OCOC(=C23)C(C)=CC(C)(O)C(O)C(C)C1OC(C)=O` (stereo not drawn) were, in that order, 41.5 µM (inactive), 37 µM (inactive) and 30.3 µM (inactive).
For `CCOC(=O)CNC(=O)NC12CC3CC(CC(C3)C1)C2`, the GI50 in the test with P388/ADR was 225 µM (inactive); with SN12K1, 141 µM (inactive); in the test with P388, 63.8 µM (inactive).
For `CC(=O)OCC1OC(Nc2ncc(-c3ccc(C)cc3)s2)C(OC(C)=O)C(OC(C)=O)C1OC(C)=O` (stereo not drawn), in that order: 25.2 µM (inactive), 46.8 µM (inactive) and 28.4 µM (inactive).
The like results for `CN(C)CCOc1cc2c(c3ccccc13)-c1ccccc1C2=O` were, in that order, 0.36 µM (active), 0.589 µM (active) and 0.0435 µM (active).
For `Cc1cc(O)c2c(c1O)C(=O)C13C(=C(O)C4C(O)C1C1C(O)C3C(O)=C3C(=O)c5c(O)cc(C)c(O)c5C(=O)C341)C2=O` (stereo not drawn), in that order: 0.0461 µM (active), 0.0506 µM (active) and < 0.01 µM (active).
With `COc1cccc(N/N=C/c2cccc(Br)c2O)c1`, the EC50 in [4] was 12.5 µM (active); on Streptokinase A, 19.6 µM (active); in [5] it was 3.27 µM (active); in test [6] it was > 60 µM (not active); in the test on Streptococcus it was > 150 µM (not active). Also, in [1], the AC50 was 1.67 µM (active).
For the compound `C[S+](C)CC1OC(n2cnc3c(N)ncnc32)C(O)C1O` (stereo not drawn), the GI50 in the test with P388/ADR was > 22.5 µM (inactive); in the test with SN12K1, > 225 µM (inactive); in the test on P388 it was > 225 µM (inactive).

For orientation: AC50 means the concentration at which the activity in the assay is half-maximal. Usually IC50 stands for the concentration that gives 50% inhibition. What is called EC50 is the concentration that produces a half-maximal response. As a reminder, the GI50 is the concentration that inhibits growth by half.
